Data from patent publication US11746100B2 (GLOBAL BLOOD THERAPEUTICS, INC., priority 2020, dated 2023).

Molecular target: T1, human ferroportin (Homo sapiens, UniProt Q9NP59)
T1 construct: luciferase reporter (read with the Nano-Glo Luciferase Assay System); expressed in transfected cells; host or cells: CHO cells, stably transfected, expression induced with doxycycline
T1 sequence (Q9NP59 1-571): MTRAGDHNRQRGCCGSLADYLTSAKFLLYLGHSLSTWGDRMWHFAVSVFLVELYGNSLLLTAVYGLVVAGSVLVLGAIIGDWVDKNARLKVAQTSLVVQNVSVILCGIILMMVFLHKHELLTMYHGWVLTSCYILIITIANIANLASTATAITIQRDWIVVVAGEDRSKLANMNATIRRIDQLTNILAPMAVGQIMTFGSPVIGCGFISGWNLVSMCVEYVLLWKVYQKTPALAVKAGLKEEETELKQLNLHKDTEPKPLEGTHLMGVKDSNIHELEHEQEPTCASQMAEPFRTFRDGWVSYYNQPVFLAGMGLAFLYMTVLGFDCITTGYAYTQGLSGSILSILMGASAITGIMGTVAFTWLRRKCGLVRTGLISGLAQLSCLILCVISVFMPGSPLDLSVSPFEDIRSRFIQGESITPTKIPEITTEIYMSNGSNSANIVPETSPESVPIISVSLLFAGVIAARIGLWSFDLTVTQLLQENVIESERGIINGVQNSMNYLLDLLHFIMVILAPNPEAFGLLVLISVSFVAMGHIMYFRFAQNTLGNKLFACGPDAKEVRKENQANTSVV
Experiment: Biological in-vitro ferroportin internalization assay (luciferase reporter)
Assay type: cell-based
Settings: average pEC50; stably-transfected CHO cell line expressing human ferroportin tagged to a luciferase reporter; 6 h incubation with test compound
How it was run: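 Read-out is Nano-Glo luciferase signal after 6 h compound exposure, with average pEC50 derived. Cells are a stable CHO line carrying luciferase-tagged human ferroportin, pre-loaded 24 h with ferric ammonium citrate and doxycycline-induced for 24 h.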

SMILES	pEC50
Cc1ccnc(-c2nc3c(c(N4CCCO[C@H]5CCC[C@@H]54)n2)CCC3)c1 [Compound 45, 2-{4-[(5aS,8aS)-octahydro-2H-cyclopenta[b][1,4]oxazepin-5-yl]-5H,6H,7H-cyclopenta[d]pyrimidin-2-yl}-4-methylpyridine]	7.2
CN(CC(=O)NC(C)(C)C)c1nc(-c2ccc(OCCO)cn2)nc2c1CCC2 [Compound 40, N-tert-butyl-2-({2-[5-(2-hydroxyethoxy)pyridin-2-yl]-5H,6H,7H-cyclopenta[d]pyrimidin-4-yl}(methyl)amino)acetamide]	7.1
CN(CC(=O)NC(C)(C)C)c1nc(-c2ccccn2)nc2c1CCCC2 [Compound 23, N-tert-butyl-2-{methyl[2-(pyridin-2-yl)-5,6,7,8-tetrahydroquinazolin-4-yl]amino}acetamide]	6.9
CN(CC(=O)NC(C)(C)CCO)c1nc(-c2ccccn2)nc2c1CCC2 [Compound 63, N-(4-hydroxy-2-methylbutan-2-yl)-2-{methyl[2-(pyridin-2-yl)-5H,6H,7H-cyclopenta[d]pyrimidin-4-yl]amino}acetamide]	7.2
COc1ccnc(-c2nc3c(c(N4CCCCCC4)n2)CCC3)c1 [Compound 53, 1-[2-(4-methoxypyridin-2-yl)-5H,6H,7H-cyclopenta[d]pyrimidin-4-yl]azepane]	6.6
CN(CC(=O)NC(C)(C)C)c1nc(-c2cccc(OCCO)n2)nc2c1CCC2 [Compound 39, N-tert-butyl-2-({2-[6-(2-hydroxyethoxy)pyridin-2-yl]-5H,6H,7H-cyclopenta[d]pyrimidin-4-yl}(methyl)amino)acetamide]	6.3
CC(C)[C@@H](O)COc1ccnc(-c2nc3c(c(N(C)CC(=O)NC(C)(C)C)n2)CCC3)c1 [Compound 387, N-tert-butyl-2-[(2-{4-[(2R)-2-hydroxy-3-methylbutoxy]pyridin-2-yl}-5H,6H,7H-cyclopenta[d]pyrimidin-4-yl)(methyl)amino]acetamide]	8.2
c1ccc(-c2nc3c(c(N4CCc5ccccc5CC4)n2)CCC3)nc1 [Compound 83, 3-[2-(pyridin-2-yl)-5H,6H,7H-cyclopenta[d]pyrimidin-4-yl]-2,3,4,5-tetrahydro-1H-3-benzazepine]	6.9
CN(CC(=O)NC(C)(C)CO)c1nc(-c2cc(OCCO)ccn2)nc2c1CCC2 [Compound 148, N-(1-hydroxy-2-methylpropan-2-yl)-2-({2-[4-(2-hydroxyethoxy)pyridin-2-yl]-5H,6H,7H-cyclopenta[d]pyrimidin-4-yl}(methyl)amino)acetamide]	7.6
CN(c1nc(-c2ccccn2)nc2c1CCC2)[C@@H](CO)C(=O)NC(C)(C)C [Compound 123, (2S)—N-tert-butyl-3-hydroxy-2-{methyl[2-(pyridin-2-yl)-5H,6H,7H-cyclopenta[d]pyrimidin-4-yl]amino}propanamide]	7.2
CC(C)(C)NC(=O)CNc1nc(-c2ccccn2)nc2c1CCCC2 [Compound 10, N-tert-butyl-2-{[2-(pyridin-2-yl)-5,6,7,8-tetrahydroquinazolin-4-yl]amino}acetamide]	6.6

Next, values leading:

pEC50	SMILES
6.2	CN(CC(=O)Nc1cnn(C)c1)c1nc(-c2cc(OC(F)(F)F)ccn2)nc2c1CCC2 [Compound 231, 2-[methyl({2-[4-(trifluoromethoxy)pyridin-2-yl]-5H,6H,7H-cyclopenta[d]pyrimidin-4-yl})amino]-N-(1-methyl-1H-pyrazol-4-yl)acetamide]
8.0	CN1CC[C@@H](Oc2ccnc(-c3nc4c(c(N(C)CC(=O)NC(C)(C)C)n3)CCC4)c2)C1 [Compound 437, N-tert-butyl-2-{methyl[2-(4-{[(3R)-1-methylpyrrolidin-3-yl]oxy}pyridin-2-yl)-5H,6H,7H-cyclopenta[d]pyrimidin-4-yl]amino}acetamide]
7.4	COc1ncc(NC(=O)CN(C)c2nc(-c3cc(OCCO)ccn3)nc3c2CCC3)cn1 [Compound 197, 2-({2-[4-(2-hydroxyethoxy)pyridin-2-yl]-5H,6H,7H-cyclopenta[d]pyrimidin-4-yl}(methyl)amino)-N-(2-methoxypyrimidin-5-yl)acetamide]
7.9	COc1ccc(NC(=O)CN(C)c2nc(-c3cc(OC4COC4)ccn3)nc3c2CCC3)cc1 [Compound 327, N-(4-methoxyphenyl)-2-[methyl({2-[4-(oxetan-3-yloxy)pyridin-2-yl]-5H,6H,7H-cyclopenta[d]pyrimidin-4-yl})amino]acetamide]
7.5	CN(CC(=O)Nc1ccc(F)cc1)c1nc(-c2cn(C)cn2)nc2c1CCC2 [Compound 202, N-(4-fluorophenyl)-2-{methyl[2-(1-methyl-1H-imidazol-4-yl)-5H,6H,7H-cyclopenta[d]pyrimidin-4-yl]amino}acetamide]
7.6	COc1ncc(NC(=O)CN(C)c2nc(-c3cc(OCC(C)(C)O)ccn3)nc3c2CCC3)cn1 [Compound 260, 2-({2-[4-(2-hydroxy-2-methylpropoxy)pyridin-2-yl]-5H,6H,7H-cyclopenta[d]pyrimidin-4-yl}(methyl)amino)-N-(2-methoxypyrimidin-5-yl)acetamide]
5.6	CN(CC(=O)NC(C)(C)C)c1nc(-c2cncn2CCO)nc2c1CCC2 [Compound 196, N-tert-butyl-2-({2-[1-(2-hydroxyethyl)-1H-imidazol-5-yl]-5H,6H,7H-cyclopenta[d]pyrimidin-4-yl}(methyl)amino)acetamide]
7.2	CN(CC(=O)NC1(C)CCOC1)c1nc(-c2cc3cn[nH]c3cn2)nc2c1CCC2 (stereo not drawn) [Compound 185, 2-[methyl(2-{1H-pyrazolo[3,4-c]pyridin-5-yl}-5H,6H,7H-cyclopenta[d]pyrimidin-4-yl)amino]-N-(3-methyloxolan-3-yl)acetamide]
6.9	CN(c1nc(-c2ccccn2)nc2c1CCC2)[C@H]1CCN(c2ccc(F)cc2)C1=O [Compound 206, (3S)-1-(4-fluorophenyl)-3-{methyl[2-(pyridin-2-yl)-5H,6H,7H-cyclopenta[d]pyrimidin-4-yl]amino}pyrrolidin-2-one]
6.6	CN(CC(=O)Nc1cncc(OC(F)(F)F)c1)c1nc(-c2cc3ccccc3cn2)nc2c1CCC2 [Compound 283, 2-{[2-(isoquinolin-3-yl)-5H,6H,7H-cyclopenta[d]pyrimidin-4-yl](methyl)amino}-N-[5-(trifluoromethoxy)pyridin-3-yl]acetamide]
7	CN(CC(=O)Nc1cnn(C)c1)c1nc(-c2cc(OC3COC3)ccn2)nc2c1CCC2 [Compound 254, 2-[methyl({2-[4-(oxetan-3-yloxy)pyridin-2-yl]-5H,6H,7H-cyclopenta[d]pyrimidin-4-yl})amino]-N-(1-methyl-1H-pyrazol-4-yl)acetamide]
7.4	CN(CC(=O)NC1(C)CCCC1)c1nc(-c2cn(C)cn2)nc2c1CCC2 [Compound 161, 2-{methyl[2-(1-methyl-1H-imidazol-4-yl)-5H,6H,7H-cyclopenta[d]pyrimidin-4-yl]amino}-N-(1-methylcyclopentyl)acetamide]
8.0	CN(C)CCOc1ccnc(-c2nc3c(c(N(C)CC(=O)NC(C)(C)C)n2)CCC3)c1 [Compound 348, N-tert-butyl-2-[(2-{4-[2-(dimethylamino)ethoxy]pyridin-2-yl}-5H,6H,7H-cyclopenta[d]pyrimidin-4-yl)(methyl)amino]acetamide]
